Data from ChEMBL document CHEMBL2346657, “Synthesis of novel 2-amino-4-(5'-substituted 2'-phenyl-1H-indol-3'-yl)-6-aryl-4H-pyran-3-carbonitrile derivatives as antimicrobial and antioxidant agents” (2013).
Calls of active or inactive are those of the source. How the calls were made is not given here.

Tests used:
Type in all cases: functional
Escherichia coli [1] = experiment: Antimicrobial activity against Escherichia coli MTCC 723 at 750 ug/ml after 24 hrs by cup plate method; details: MTCC 723, 24 h, read-out: IZ
Aspergillus oryzae [2] = experiment: Antimicrobial activity against Aspergillus oryzae MTCC 3567 at 500 ug/ml after 72 hrs by cup plate method; details: MTCC 3567, 72 h, read-out: IZ
Aspergillus terreus [3] = experiment: Antimicrobial activity against Aspergillus terreus MTCC 1782 at 500 ug/ml after 72 hrs by cup plate method; details: MTCC 1782, 72 h, read-out: IZ
Aspergillus terreus [4] = experiment: Antimicrobial activity against Aspergillus terreus MTCC 1782 at 750 ug/ml after 72 hrs by cup plate method; details: MTCC 1782, 72 h, read-out: IZ
Staphylococcus aureus [5] = experiment: Antimicrobial activity against Staphylococcus aureus ATCC 29513 at 1000 ug/ml after 24 hrs by cup plate method; details: ATCC 29513, 24 h, read-out: IZ
Aspergillus flavus [6] = experiment: Antimicrobial activity against Aspergillus flavus MTCC 1973 at 750 ug/ml after 72 hrs by cup plate method; details: MTCC 1973, 72 h, read-out: IZ
Aspergillus oryzae [7] = experiment: Antimicrobial activity against Aspergillus oryzae MTCC 3567 at 1000 ug/ml after 72 hrs by cup plate method; details: MTCC 3567, 72 h, read-out: IZ
Klebsiella pneumoniae [8] = experiment: Antimicrobial activity against Klebsiella pneumoniae NCTC 13368 at 500 ug/ml after 24 hrs by cup plate method; details: NCTC 13368, 24 h, read-out: IZ
Escherichia coli [9] = experiment: Antimicrobial activity against Escherichia coli MTCC 723 at 500 ug/ml after 24 hrs by cup plate method; details: MTCC 723, 24 h, read-out: IZ
Aspergillus niger [10] = experiment: Antimicrobial activity against Aspergillus niger MTCC 281 at 750 ug/ml after 72 hrs by cup plate method; details: MTCC 281, 72 h, read-out: IZ
Staphylococcus aureus [11] = experiment: Antimicrobial activity against Staphylococcus aureus ATCC 29513 at 500 ug/ml after 24 hrs by cup plate method; details: ATCC 29513, 24 h, read-out: IZ
Aspergillus niger [12] = experiment: Antimicrobial activity against Aspergillus niger MTCC 281 at 1000 ug/ml after 72 hrs by cup plate method; details: MTCC 281, 72 h, read-out: IZ
Aspergillus niger [13] = experiment: Antimicrobial activity against Aspergillus niger MTCC 281 at 500 ug/ml after 72 hrs by cup plate method; details: MTCC 281, 72 h, read-out: IZ
Klebsiella pneumoniae [14] = experiment: Antimicrobial activity against Klebsiella pneumoniae NCTC 13368 at 1000 ug/ml after 24 hrs by cup plate method; details: NCTC 13368, 24 h, read-out: IZ
Escherichia coli [15] = experiment: Antimicrobial activity against Escherichia coli MTCC 723 at 1000 ug/ml after 24 hrs by cup plate method; details: MTCC 723, 24 h, read-out: IZ
Aspergillus oryzae [16] = experiment: Antimicrobial activity against Aspergillus oryzae MTCC 3567 at 750 ug/ml after 72 hrs by cup plate method; details: MTCC 3567, 72 h, read-out: IZ
Pseudomonas aeruginosa [17] = experiment: Antimicrobial activity against Pseudomonas aeruginosa MTCC 1688 at 750 ug/ml after 24 hrs by cup plate method; details: MTCC 1688, 24 h, read-out: IZ
[18] = Antioxidant activity assessed as metal chelating activity by measuring inhibition of ferrozine-Fe2+ complex formation at 25 to 100 ug/ml
Aspergillus terreus [19] = experiment: Antimicrobial activity against Aspergillus terreus MTCC 1782 at 1000 ug/ml after 72 hrs by cup plate method; details: MTCC 1782, 72 h, read-out: IZ
Pseudomonas aeruginosa [20] = experiment: Antimicrobial activity against Pseudomonas aeruginosa MTCC 1688 at 500 ug/ml after 24 hrs by cup plate method; details: MTCC 1688, 24 h, read-out: IZ
Aspergillus flavus [21] = experiment: Antimicrobial activity against Aspergillus flavus MTCC 1973 at 1000 ug/ml after 72 hrs by cup plate method; details: MTCC 1973, 72 h, read-out: IZ
Klebsiella pneumoniae [22] = experiment: Antimicrobial activity against Klebsiella pneumoniae NCTC 13368 at 750 ug/ml after 24 hrs by cup plate method; details: NCTC 13368, 24 h, read-out: IZ
Pseudomonas aeruginosa [23] = experiment: Antimicrobial activity against Pseudomonas aeruginosa MTCC 1688 at 1000 ug/ml after 24 hrs by cup plate method; details: MTCC 1688, 24 h, read-out: IZ
Staphylococcus aureus [24] = experiment: Antimicrobial activity against Staphylococcus aureus ATCC 29513 at 750 ug/ml after 24 hrs by cup plate method; details: ATCC 29513, 24 h, read-out: IZ
Aspergillus flavus [25] = experiment: Antimicrobial activity against Aspergillus flavus MTCC 1973 at 500 ug/ml after 72 hrs by cup plate method; details: MTCC 1973, 72 h, read-out: IZ

Compound | zone of inhibition at 750 µg/mL (Escherichia coli [1]) | zone of inhibition at 500 µg/mL (Aspergillus oryzae [2]) | zone of inhibition at 500 µg/mL (Aspergillus terreus [3]) | zone of inhibition at 750 µg/mL (Aspergillus terreus [4]) | zone of inhibition at 1000 µg/mL (Staphylococcus aureus [5]) | zone of inhibition at 1000 µg/mL (Aspergillus oryzae [7]) | zone of inhibition at 500 µg/mL (Klebsiella pneumoniae [8]) | zone of inhibition at 500 µg/mL (Escherichia coli [9]) | zone of inhibition at 750 µg/mL (Aspergillus niger [10]) | zone of inhibition at 500 µg/mL (Staphylococcus aureus [11]) | zone of inhibition at 1000 µg/mL (Aspergillus niger [12]) | zone of inhibition at 500 µg/mL (Aspergillus niger [13]) | zone of inhibition at 1000 µg/mL (Klebsiella pneumoniae [14]) | zone of inhibition at 1000 µg/mL (Escherichia coli [15]) | zone of inhibition at 750 µg/mL (Aspergillus oryzae [16]) | zone of inhibition at 750 µg/mL (Pseudomonas aeruginosa [17]) | zone of inhibition at 1000 µg/mL (Aspergillus terreus [19]) | zone of inhibition at 500 µg/mL (Pseudomonas aeruginosa [20]) | zone of inhibition at 750 µg/mL (Klebsiella pneumoniae [22]) | zone of inhibition at 1000 µg/mL (Pseudomonas aeruginosa [23]) | also measured
Nc1nc(=S)[nH]c2c1C(c1c(-c3ccccc3)[nH]c3ccccc13)C=C(c1ccc(Cl)cc1)O2 (centres undefined) | 10 mm | 9 mm | 8 mm | 5 mm | 11 mm | 8 mm | 8 mm | 10 mm | 3 mm | 10 mm | 5 mm | 3 mm | 5 mm | 10 mm | 8 mm | 10 mm | 5 mm | 10 mm | 8 mm | 10 mm | zone of inhibition at 750 µg/mL (Aspergillus flavus [6]): 12 mm; Activity [18]: Active; zone of inhibition at 1000 µg/mL (Aspergillus flavus [21]): 5 mm; zone of inhibition at 750 µg/mL (Staphylococcus aureus [24]): 10 mm; zone of inhibition at 500 µg/mL (Aspergillus flavus [25]): 12 mm
Cc1ccc(C2=CC(c3c(-c4ccccc4)[nH]c4ccc(Cl)cc34)c3c(N)nc(=S)[nH]c3O2)cc1 (centres undefined) | 9 mm | 3 mm | 9 mm | 8 mm | 2 mm | 2 mm | 10 mm | 10 mm | 10 mm | 6 mm | 10 mm | 10 mm | 9 mm | 9 mm | 2 mm | 10 mm | 8 mm | 10 mm | 10 mm | 10 mm | zone of inhibition at 750 µg/mL (Aspergillus flavus [6]): 3 mm; Activity [18]: Active; zone of inhibition at 1000 µg/mL (Aspergillus flavus [21]): 3 mm; zone of inhibition at 750 µg/mL (Staphylococcus aureus [24]): 3 mm; zone of inhibition at 500 µg/mL (Aspergillus flavus [25]): 3 mm
N#Cc1c(N)c2c(N)c3c(nc2oc1=O)OC(c1ccccc1)=CC3c1c(-c2ccccc2)[nH]c2ccc(Cl)cc12 (centres undefined) | 10 mm | 12 mm | 3 mm | 3 mm | 14 mm | 13 mm | 5 mm | 10 mm | 9 mm | 13 mm | 10 mm | 9 mm | 5 mm | 8 mm | 12 mm | 8 mm | 3 mm | 9 mm | 5 mm | 5 mm | zone of inhibition at 750 µg/mL (Aspergillus flavus [6]): 3 mm; Activity [18]: Active; zone of inhibition at 750 µg/mL (Staphylococcus aureus [24]): 13 mm; zone of inhibition at 500 µg/mL (Aspergillus flavus [25]): 5 mm
O=c1[nH]cnc2c1C(c1c(-c3ccccc3)[nH]c3ccccc13)C=C(c1ccccc1)O2 (centres undefined) | 6 mm | 5 mm | 9 mm | 8 mm | 10 mm | 5 mm | 11 mm | 8 mm | 6 mm | 10 mm | 5 mm | 6 mm | 10 mm | 6 mm | 5 mm | 4 mm | 8 mm | 5 mm | 10 mm | 4 mm | zone of inhibition at 750 µg/mL (Aspergillus flavus [6]): 9 mm; Activity [18]: Active; zone of inhibition at 1000 µg/mL (Aspergillus flavus [21]): 9 mm; zone of inhibition at 750 µg/mL (Staphylococcus aureus [24]): 10 mm; zone of inhibition at 500 µg/mL (Aspergillus flavus [25]): 9 mm
OC(Cn1cncn1)(Cn1cncn1)c1ccc(F)cc1F [FLUCONAZOLE] | – | 13 mm | 13 mm | 14 mm | – | 14 mm | – | – | 13 mm | – | 14 mm | 13 mm | – | – | 14 mm | – | 14 mm | – | – | – | zone of inhibition at 750 µg/mL (Aspergillus flavus [6]): 13 mm; zone of inhibition at 1000 µg/mL (Aspergillus flavus [21]): 14 mm; zone of inhibition at 500 µg/mL (Aspergillus flavus [25]): 13 mm
Cc1ccc2[nH]c(-c3ccccc3)c(C3C=C(c4ccccc4)Oc4nc5oc(=O)c(C#N)c(N)c5c(N)c43)c2c1 (centres undefined) | 9 mm | 11 mm | 9 mm | 4 mm | 4 mm | 8 mm | 4 mm | 10 mm | 10 mm | 9 mm | 10 mm | 10 mm | 4 mm | 5 mm | 8 mm | 3 mm | 4 mm | 3 mm | 4 mm | 0 mm | zone of inhibition at 750 µg/mL (Aspergillus flavus [6]): 0 mm; Activity [18]: Active; zone of inhibition at 750 µg/mL (Staphylococcus aureus [24]): 8 mm; zone of inhibition at 500 µg/mL (Aspergillus flavus [25]): 5 mm
CN[C@@H]1[C@H](O[C@H]2[C@H](O[C@H]3[C@H](O)[C@@H](O)[C@H](N=C(N)N)[C@@H](O)[C@@H]3N=C(N)N)O[C@@H](C)[C@]2(O)C=O)O[C@@H](CO)[C@H](O)[C@H]1O [STREPTOMYCIN] | 14 mm | – | – | – | 15 mm | – | 14 mm | 14 mm | – | 15 mm | – | – | 14 mm | 15 mm | – | 13 mm | – | 13 mm | 14 mm | 14 mm | zone of inhibition at 750 µg/mL (Staphylococcus aureus [24]): 15 mm
N#Cc1c(N)c2c(N)c3c(nc2oc1=O)OC(c1ccccc1)=CC3c1c(-c2ccccc2)[nH]c2ccccc12 (centres undefined) | 8 mm | 11 mm | 5 mm | 5 mm | 9 mm | 11 mm | 11 mm | 8 mm | 3 mm | 10 mm | 10 mm | 5 mm | 10 mm | 10 mm | 11 mm | 7 mm | 5 mm | 5 mm | 11 mm | 3 mm | zone of inhibition at 750 µg/mL (Aspergillus flavus [6]): 3 mm; Activity [18]: Active; zone of inhibition at 750 µg/mL (Staphylococcus aureus [24]): 10 mm; zone of inhibition at 500 µg/mL (Aspergillus flavus [25]): 5 mm
N#CC1=C(N)OC(c2ccc(Cl)cc2)=CC1c1c(-c2ccccc2)[nH]c2ccccc12 (centres undefined) | 5 mm | 9 mm | 12 mm | 13 mm | 10 mm | 3 mm | 2 mm | 5 mm | 6 mm | 10 mm | 5 mm | 8 mm | 2 mm | 3 mm | 9 mm | 8 mm | 13 mm | 10 mm | 2 mm | 8 mm | Activity [18]: Active; zone of inhibition at 1000 µg/mL (Aspergillus flavus [21]): 2 mm; zone of inhibition at 750 µg/mL (Staphylococcus aureus [24]): 10 mm
